Counter-ions that a name gives are not always drawn.
Columns and labels:
[1] = test system: release of TNF α from THP-1 cells; test: Inhibitory activity of TNF α release from THP-1 cells (LPS, ELISA); type: cell-based; details: 3 hr, 37° C., TNF α by ELISA
Method: The inhibitory effect of each compound (compounds of Examples 1, 2, 3, 6, 35, 39 and 44) on the release of TNF α from THP-1 cells which are monocyte cultured cells [see Nature 370, 218-220 (1994)] was investigated.
The THP-1 cells were suspended to a concentration of 1×10 ^6 cells/ml in RPMI1640 medium supplemented with 10% fetal calf serum (FCS) and dispensed by 100 μl. A 2 μg/ml LPS was prepared with RPMI1640 medium supplemented with 10% FCS. Each compound (dissolved in dimethyl sulfoxide) was diluted 500-fold with the LPS solution.
The diluted solutions of these compounds were added to the dispensed cell suspensions by 100 μl and allowed for 3 hr to react under the conditions of 37° C., 5% CO2. After the completion of the reaction, the reaction mixture was centrifuged and the culture supernatant was collected. The TNF α amount was quantitatively measured by ELISA (enzyme-linked immunosorbent assay). The TNF α release inhibitory effect by each compound was calculated from the proportion of released TNF α amount of the compound addition group relative to that of the compound non-addition group.

[2] = Solubility in saline (0.9% aqueous sodium chloride solution) at 25° C.; type: physicochemical; details: for solubility: saline or isotonic
Method: The solubility of the Example compounds of the present invention in saline (0.9% aqueous sodium chloride solution) at 25° C. was measured.

[3] = test system: release of TNF α from LPS treated human whole blood; test: Inhibitory activity of TNF α release from LPS treated human whole blood (ELISA); type: cell-based; details: LPS treated human whole blood diluted 4-fold, 24 hr, 37° C., TNF α by ELISA
Method: The inhibitory effect of each compound (compounds of Examples 2, 6, 7, 10, 11, 37, 147, 231 and 245) on the release of TNF α from LPS treated human whole blood [see: Lymphokine Res 8, 141-146 (1989)] was investigated.
Human whole blood was diluted 4-fold with RPMI1640 medium supplemented with 10% FCS. The diluted blood was dispensed to a 96 multi-well plate by 100 μl and equilibrated under the conditions of 37° C., 5% CO2. LPS (2 μg/ml) was prepared with RPMI1640 medium supplemented with 10% FCS and a culture broth prepared by dissolving each compound (dissolved in dimethyl sulfoxide) in the LPS solution was added by 100 μl/well (final concentrated of dimethyl sulfoxide 0.1%), which was followed by incubation for 24 hr (37° C., 5% CO2). After the incubation, the reaction mixture was centrifuged (1,500 rpm, 5 min). The culture supernatant (40 μl/well) was collected, and TNF α amount in the supernatant was quantitatively measured by ELISA. The TNF α release inhibitory effect by each compound was calculated from the proportion of release TNF α amount of the compound addition group relitive to that of the compound non-addition group.

SMILES | solubility [2] [mg/mL] | IC50 [3] [µM] | Solubility, saline [2] [mg/mL] | other results
CC(C)C[C@@H](C(=O)N[C@@H](Cc1ccc(OS(=O)(=O)[O-])cc1)C(=O)c1ccco1)C(CN1C(=O)c2ccccc2C1=O)C(=O)NO.[Na+] (single isomer, unassigned) [Example 6, Sodium Salt of 3(R)-[1(S)-(2-furyl)carbonyl-2-[4-(hydroxysulfonyloxy)phenyl]]ethylcarbamoyl-5-methyl-2(R or S)-phthalimidomethylhexanohydroxamic Acid] | > 20 | 1.39 |  | IC50 ([1]; Homo sapiens): 0.66 µM
CC(C)C[C@@H](C(=O)N[C@@H](Cc1ccc(OCCN(C)C)cc1)C(=O)c1ccco1)C(CCCc1ccccc1)C(=O)NO (single isomer, unassigned) [Example 44, 3(R)-[2-[4-(2-dimethylaminoethoxy)phenyl]-1(S)-(2-furyl)carbonyl]ethylcarbamoyl-5-methyl-2(R or S)-(3-phenylpropyl)hexanohydroxamic acid hydrochloride] |  |  |  | IC50 [1]: 0.42 µM
CC(C)C[C@@H](C(=O)N[C@@H](Cc1ccccc1)C(=O)c1ccc(OCCN(C)C)cc1)C(CCCc1ccccc1)C(=O)NO.Cl (single isomer, unassigned) [Example 35, 3(R)-[1(S)-[4-(2-Dimethylaminoethoxy)benzoyl]-2-phenyl]ethylcarbamoyl-5-methyl-2(R or S)-(3-phenylpropyl)hexanohydroxamic Acid Hydrochloride] |  |  | >20 | IC50 [1]: 0.14 µM
CC(C)C[C@@H](C(=O)N[C@@H](Cc1ccc(OS(=O)(=O)[O-])cc1)C(=O)c1ccco1)C(CN1C(=O)N(C)C(C)(C)C1=O)C(=O)NO.[Na+] (single isomer, unassigned) [Example 84, Sodium Salt of 3(R)-[1(S)-(2-Furyl)carbonyl-2-[4-(hydroxysulfonyloxy)phenyl]]ethylcarbamoyl-5-methyl-2(R or S)-(2,5-dioxo-3,4,4-trimethyl-1-imidazolidinyl)methylhexanohydroxamic Acid] |  |  | >20 | 
CC(C)C[C@@H](C(=O)N[C@@H](Cc1ccccc1)C(=O)c1ccc(OCCN(C)C)cc1)C(CN1C(=O)N(C)C(C)(C)C1=O)C(=O)NO.Cl (single isomer, unassigned) [Example 37, 3(R)-[1(S)-[4-(2-Dimethylaminoethoxy)benzoyl]-2-phenyl]ethylcarbamoyl-5-methyl-2(R or S)-(2,5-dioxo-3,4,4-trimethyl-1-imidazolidinyl)methylhexanohydroxamic Acid Hydrochloride] |  | 3.47 | >20 | 
CC(C)C[C@@H](C(=O)N[C@@H](Cc1ccc(S(=O)(=O)[O-])cc1)C(=O)c1ccco1)C(Cc1ccc2ccccc2c1)C(=O)NO.[Na+] (single isomer, unassigned) [Example 7, Sodium Salt of 3(R)-[1(S)-(2-Furyl)carbonyl-2-(4-sulfophenyl)ethylcarbamoyl]-5-methyl-2(R or S)-(2-naphthylmethyl)hexanohydroxamic Acid] | > 20 | 2.46 |  | 
CC(C)C[C@@H](C(=O)N[C@@H](Cc1ccc(S(=O)(=O)[O-])cc1)C(=O)c1ccco1)C(CN1C(=O)c2ccccc2C1=O)C(=O)NO.[Na+] (single isomer, unassigned) [Example 10, Sodium Salt of 3(R)-[1(S)-(2-Furyl)carbonyl-2-(4-sulfophenyl)ethylcarbamoyl]-5-methyl-2(R or S)-phthalimidomethylhexanohydroxamic Acid] | 10 | 1.7 |  | 
CC(C)C[C@@H](C(=O)N[C@H](C(=O)c1ccc(OCCN(C)C)cc1)C(C)(C)C)C(CN1C(=O)N(C)C(C)(C)C1=O)C(=O)NO.Cl (single isomer, unassigned) [Example 147, 3(R)-[2,2-Dimethyl-1(S)-[4-(2-dimethylaminoethoxy)benzoyl]]propylcarbamoyl-5-methyl-2(R or S)-(2,5-dioxo-3,4,4-trimethyl-1-imidazolidinyl)methylhexanohydroxamic Acid Hydrochloride] |  | 2.29 | >20 | 
CC(C)C[C@@H](C(=O)N[C@H](C(=O)c1ccc(OCCN(C)C)cc1)C(C)(C)C)C(CN1C(=O)c2ccccc2C1=O)C(=O)NO.Cl (single isomer, unassigned) [Example 39, 3(R)-[2,2-Dimethyl-1(S)-[4-(2-dimethylaminoethoxy)benzoyl]]propylcarbamoyl-5-methyl-2(R or S)-phthalimidomethylhexanohydroxamic Acid Hydrochloride] |  |  | >20 | IC50 [1]: 0.3 µM
CC(C)C[C@@H](C(=O)N[C@@H](Cc1ccc(OCCN(C)C)cc1)C(=O)c1ccco1)C(CN1C(=O)N(C)C(C)(C)C1=O)C(=O)NO.Cl (single isomer, unassigned) [Example 5, 3(R)-[2-[4-(2-Dimethylaminoethoxy)phenyl]-1(S)-(2-furyl)carbonyl]ethylcarbamoyl-5-methyl-2(R or S)-(2,5-dioxo-3,4,4-trimethyl-1-imidazolidinyl)methylhexanohydroxamic Acid Hydrochloride] | > 20 |  |  | 
CC(C)C[C@@H](C(=O)N[C@@H](Cc1ccccc1)C(=O)c1ccc(OCCN2CCN(C)CC2)cc1)C(CN1C(=O)c2ccccc2C1=O)C(=O)NO (single isomer, unassigned) [Example 1, 5-Methyl-3(R)-[1(S)-[4-[2-[1-(4-methyl)piperazinyl]ethoxy]benzoyl]-2-phenyl]ethylcarbamoyl-2(R or S)-phthalimidomethylhexanohydroxamic Acid Dihydrochloride] | > 10 |  |  | IC50 ([1]; Homo sapiens): 0.27 µM
CC(C)C[C@@H](C(=O)N[C@@H](Cc1ccc(S(=O)(=O)[O-])cc1)C(=O)c1ccco1)C(Cc1ccccc1)C(=O)NO.[Na+] (single isomer, unassigned) [Example 9, Sodium Salt of 2(R or S)-Benzyl-3(R)-[1(S)-(2-furyl)carbonyl-2-(4-sulfophenyl)ethylcarbamoyl]-5-methylhexanohydroxamic Acid] | > 20 |  |  | 
CC(C)C[C@@H](C(=O)N[C@@H](Cc1ccc(S(=O)(=O)[O-])cc1)C(=O)c1ccco1)C(CN1Cc2ccccc2C1=O)C(=O)NO.[Na+] (single isomer, unassigned) [Example 11, Sodium Salt of 3(R)-[1(S)-(2-Furyl)carbonyl-2-(4-sulfophenyl)ethylcarbamoyl]-5-methyl-2(R or S)-(1-oxoisoindolin-2-ylmethyl)hexanohydroxamic Acid] | > 20 | 1.73 |  | 
CC(C)C[C@@H](C(=O)N[C@@H](Cc1ccc(NC(=N)N)cc1)C(=O)c1ccco1)C(CN1C(=O)c2ccccc2C1=O)C(=O)NO (single isomer, unassigned) [Example 3, 3(R)-[1(S)-(2-Furyl)carbonyl-2-(4-guanidinophenyl)]ethylcarbamoyl-5-methyl-2(R or S)-phthalimidomethylhexanohydroxamic Acid Hydrochloride] |  |  |  | IC50 ([1]; Homo sapiens): 0.19 µM
CC(C)C[C@@H](C(=O)N[C@H](C(=O)c1ccc(OCCN(C)C)cc1)C(C)(C)C)C(CCCc1ccccc1)C(=O)NO.Cl (single isomer, unassigned) [Example 88, 3(R)-[2,2-dimethyl-1(S)-[4-(2-dimethylaminoethoxy)benzoyl]]propylcarbamoyl-5-methyl-2(R or S)-(3-phenylpropyl)hexanohydroxamic acid hydrochloride] |  |  | 5 | 
CC(C)C[C@@H](C(=O)N[C@@H](Cc1ccccc1)C(=O)c1ccc(CO)o1)C(CN1C(=O)N(C)C(C)(C)C1=O)C(=O)NO (single isomer, unassigned) [Example 245, 3(R)-[1(S)-[2-(5-Hydroxymethyl)furyl]carbonyl-2-phenyl]ethylcarbamoyl-5-methyl-2(R or S)-(2,5-dioxo-3,4,4-trimethyl-1-imidazolidinyl)methylhexanohydroxamic Acid] |  | 3.74 |  | 
CC(C)C[C@@H](C(=O)N[C@@H](Cc1ccc(S(=O)(=O)[O-])cc1)C(=O)c1ccco1)C(Cc1cccc2ccccc12)C(=O)NO.[Na+] (single isomer, unassigned) [Example 8, Sodium Salt of 3(R)-[1(S)-(2-Furyl)carbonyl-2-(4-sulfophenyl)ethylcarbamoyl]-5-methyl-2(R or S)-(1-naphthylmethyl)hexanohydroxamic Acid] | > 20 |  |  | 
